Each molecule was assayed on Mus musculus (assay: Inhibition of [3H]cortisone to [3H]cortisol conversion in mouse at 10 mg/kg, po administered as single dose after 4 hrs).
Format: functional

| SMILES | inhibition in vivo at 10 mg/kg [%] |
| --- | --- |
| Cn1c(-c2ccc(O)cc2)nnc1C1(c2ccc(Cl)cc2)CCC1 | 10 |
| Cc1ccccc1-c1nnc(C2(c3ccc(Cl)cc3)CCC2)n1C | 1 |
| Cn1c(-c2ccccc2)nnc1C12CC3CC(CC(C3)C1)C2 [FIG 1] | 47 |
| Cn1c(-c2ccccc2C(F)(F)F)nnc1C1(c2ccc(Cl)cc2)CCC1 | 63 |
| C1CCc2nnc(C34CC5CC(CC(C5)C3)C4)n2CC1 | 21 |
| Cn1c(-c2ccccc2OC(F)(F)F)nnc1C1(c2ccc(Cl)cc2)CCC1 | 44 |
| Cn1c(-c2ccccc2Cl)nnc1C1(c2ccc(Cl)cc2)CCC1 | 73 |
| Cn1c(-c2cccc(Cl)c2)nnc1C1(c2ccc(Cl)cc2)CCC1 | 12 |
| Cn1c(-c2ccccc2O)nnc1C1(c2ccc(Cl)cc2)CCC1 | -2 |
| Cn1c(-c2ccc(-n3cccc3)cc2)nnc1C1(c2ccc(Cl)cc2)CCC1 | 28 |
| Cn1c(-c2cccc(-c3ccccc3)c2)nnc1C1(c2ccc(Cl)cc2)CCC1 | -2 |
| Cn1c(-c2ccc(OC3CC3)cc2)nnc1C1(c2ccc(Cl)cc2)CCC1 | 95 |
| Cn1c(-c2ccc(Cc3ccccc3)cc2)nnc1C1(c2ccc(Cl)cc2)CCC1 | -4 |
| COc1ccc(-c2nnc(C3(c4ccc(Cl)cc4)CCC3)n2C)cc1F | -1 |
| Cn1c(-c2ccc(OC(F)(F)F)cc2)nnc1C1(c2ccc(Cl)cc2)CCC1 | 27 |
| Cn1c(-c2ccc(-c3ccccc3)cc2)nnc1C1(c2ccc(Cl)cc2)CCC1 | 90 |
| Cn1c(-c2ccc(-c3nccs3)cc2)nnc1C1(c2ccc(Cl)cc2)CCC1 | 67 |
| Cn1c(-c2ccc(-n3ccnc3)cc2)nnc1C1(c2ccc(Cl)cc2)CCC1 | 44 |
| Cn1c(-c2ccccc2)nnc1C1(c2ccc(Cl)cc2)CCC1 | 29 |

These molecules were tested against 11-beta-hydroxysteroid dehydrogenase 1 (Mus musculus, UniProt P50172) (assay: Inhibition of mouse 11beta HSD1 by SPA assay).
11-beta-hydroxysteroid dehydrogenase 1 (Mus musculus, UniProt P50172), sequence (P50172 whole entry): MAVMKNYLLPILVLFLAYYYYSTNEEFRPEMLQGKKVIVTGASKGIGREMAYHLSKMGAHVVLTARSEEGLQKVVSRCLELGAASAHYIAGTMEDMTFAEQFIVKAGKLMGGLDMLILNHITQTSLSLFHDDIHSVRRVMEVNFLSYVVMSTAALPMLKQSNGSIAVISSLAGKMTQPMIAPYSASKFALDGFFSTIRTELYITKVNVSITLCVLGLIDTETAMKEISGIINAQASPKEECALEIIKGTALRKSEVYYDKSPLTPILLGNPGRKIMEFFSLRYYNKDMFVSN

| SMILES | IC50 [nM] |
| --- | --- |
| Cn1c(-c2ccc(O)cc2)nnc1C1(c2ccc(Cl)cc2)CCC1 | 19 |
| Cc1ccccc1-c1nnc(C2(c3ccc(Cl)cc3)CCC2)n1C | 21 |
| Cn1c(-c2ccccc2)nnc1C12CC3CC(CC(C3)C1)C2 [FIG 1] | 109 |
| Cn1c(-c2ccccc2C(F)(F)F)nnc1C1(c2ccc(Cl)cc2)CCC1 | 4 |
| Cn1c(-c2ccccc2OC(F)(F)F)nnc1C1(c2ccc(Cl)cc2)CCC1 | 4.1 |
| Cn1c(-c2ccccc2Cl)nnc1C1(c2ccc(Cl)cc2)CCC1 | 3.5 |
| Cn1c(-c2cccc(Cl)c2)nnc1C1(c2ccc(Cl)cc2)CCC1 | 34 |
| Cn1c(-c2ccccc2O)nnc1C1(c2ccc(Cl)cc2)CCC1 | 17 |
| Cn1c(-c2ccc(-n3cccc3)cc2)nnc1C1(c2ccc(Cl)cc2)CCC1 | 5.4 |
| Cn1c(-c2cccc(-c3ccccc3)c2)nnc1C1(c2ccc(Cl)cc2)CCC1 | 56 |
| Cn1c(-c2ccc(OC3CC3)cc2)nnc1C1(c2ccc(Cl)cc2)CCC1 | 2.2 |
| Cn1c(-c2ccc(Cc3ccccc3)cc2)nnc1C1(c2ccc(Cl)cc2)CCC1 | 18 |
| COc1ccc(-c2nnc(C3(c4ccc(Cl)cc4)CCC3)n2C)cc1F | 42 |
| Cn1c(-c2ccc(OC(F)(F)F)cc2)nnc1C1(c2ccc(Cl)cc2)CCC1 | 6.9 |
| Cn1c(-c2ccc(-c3ccccc3)cc2)nnc1C1(c2ccc(Cl)cc2)CCC1 | 4 |
| Cn1c(-c2ccc(-c3nccs3)cc2)nnc1C1(c2ccc(Cl)cc2)CCC1 | 3.1 |
| Cn1c(-c2ccc(-n3ccnc3)cc2)nnc1C1(c2ccc(Cl)cc2)CCC1 | 46 |
| Cn1c(-c2ccccc2)nnc1C1(c2ccc(Cl)cc2)CCC1 | 52 |

Each molecule was assayed on Mus musculus (assay: Inhibition of [3H]cortisone to [3H]cortisol conversion in mouse at 10 mg/kg, po administered as single dose after 1 hr).
Format: functional

| SMILES | inhibition in vivo at 10 mg/kg [%] |
| --- | --- |
| Cn1c(-c2ccc(O)cc2)nnc1C1(c2ccc(Cl)cc2)CCC1 | 17 |
| Cc1ccccc1-c1nnc(C2(c3ccc(Cl)cc3)CCC2)n1C | 9 |
| Cn1c(-c2ccccc2)nnc1C12CC3CC(CC(C3)C1)C2 [FIG 1] | 85 |
| Cn1c(-c2ccccc2C(F)(F)F)nnc1C1(c2ccc(Cl)cc2)CCC1 | 73 |
| C1CCc2nnc(C34CC5CC(CC(C5)C3)C4)n2CC1 | 31 |
| Cn1c(-c2ccccc2OC(F)(F)F)nnc1C1(c2ccc(Cl)cc2)CCC1 | 59 |
| Cn1c(-c2ccccc2Cl)nnc1C1(c2ccc(Cl)cc2)CCC1 | 86 |
| Cn1c(-c2cccc(Cl)c2)nnc1C1(c2ccc(Cl)cc2)CCC1 | 24 |
| Cn1c(-c2ccccc2O)nnc1C1(c2ccc(Cl)cc2)CCC1 | -2 |
| Cn1c(-c2ccc(-n3cccc3)cc2)nnc1C1(c2ccc(Cl)cc2)CCC1 | 41 |
| Cn1c(-c2cccc(-c3ccccc3)c2)nnc1C1(c2ccc(Cl)cc2)CCC1 | -2 |
| Cn1c(-c2ccc(OC3CC3)cc2)nnc1C1(c2ccc(Cl)cc2)CCC1 | 95 |
| Cn1c(-c2ccc(Cc3ccccc3)cc2)nnc1C1(c2ccc(Cl)cc2)CCC1 | 20 |
| COc1ccc(-c2nnc(C3(c4ccc(Cl)cc4)CCC3)n2C)cc1F | 10 |
| Cn1c(-c2ccc(OC(F)(F)F)cc2)nnc1C1(c2ccc(Cl)cc2)CCC1 | 64 |
| Cn1c(-c2ccc(-c3ccccc3)cc2)nnc1C1(c2ccc(Cl)cc2)CCC1 | 86 |
| Cn1c(-c2ccc(-c3nccs3)cc2)nnc1C1(c2ccc(Cl)cc2)CCC1 | 92 |
| Cn1c(-c2ccc(-n3ccnc3)cc2)nnc1C1(c2ccc(Cl)cc2)CCC1 | 79 |
| Cn1c(-c2ccccc2)nnc1C1(c2ccc(Cl)cc2)CCC1 | 47 |

The molecules below were run against T1, 11-beta-hydroxysteroid dehydrogenase type 2 (Mus musculus, UniProt P51661) (assay: Inhibition of mouse 11beta HSD2).
T1 sequence (P51661 whole entry): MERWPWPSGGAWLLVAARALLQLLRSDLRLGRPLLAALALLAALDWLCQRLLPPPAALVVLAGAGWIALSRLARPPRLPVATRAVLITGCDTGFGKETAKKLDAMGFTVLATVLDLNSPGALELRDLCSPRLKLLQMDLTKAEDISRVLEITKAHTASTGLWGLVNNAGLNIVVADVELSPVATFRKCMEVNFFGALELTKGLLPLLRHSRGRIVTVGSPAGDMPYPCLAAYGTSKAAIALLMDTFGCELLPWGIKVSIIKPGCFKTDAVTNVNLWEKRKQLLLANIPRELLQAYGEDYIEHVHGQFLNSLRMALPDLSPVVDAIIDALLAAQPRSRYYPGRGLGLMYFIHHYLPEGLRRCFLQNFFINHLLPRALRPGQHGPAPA

| SMILES | IC50 [nM] |
| --- | --- |
| Cn1c(-c2ccc(O)cc2)nnc1C1(c2ccc(Cl)cc2)CCC1 | > 4000 |
| Cc1ccccc1-c1nnc(C2(c3ccc(Cl)cc3)CCC2)n1C | > 4000 |
| Cn1c(-c2ccccc2)nnc1C12CC3CC(CC(C3)C1)C2 [FIG 1] | > 4000 |
| Cn1c(-c2ccccc2C(F)(F)F)nnc1C1(c2ccc(Cl)cc2)CCC1 | > 4000 |
| C1CCc2nnc(C34CC5CC(CC(C5)C3)C4)n2CC1 | > 10000 |
| Cn1c(-c2ccccc2OC(F)(F)F)nnc1C1(c2ccc(Cl)cc2)CCC1 | > 4000 |
| Cn1c(-c2ccccc2Cl)nnc1C1(c2ccc(Cl)cc2)CCC1 | > 4000 |
| Cn1c(-c2cccc(Cl)c2)nnc1C1(c2ccc(Cl)cc2)CCC1 | > 4000 |
| Cn1c(-c2ccccc2O)nnc1C1(c2ccc(Cl)cc2)CCC1 | > 4000 |
| Cn1c(-c2ccc(-n3cccc3)cc2)nnc1C1(c2ccc(Cl)cc2)CCC1 | > 4000 |
| Cn1c(-c2cccc(-c3ccccc3)c2)nnc1C1(c2ccc(Cl)cc2)CCC1 | > 4000 |
| Cn1c(-c2ccc(OC3CC3)cc2)nnc1C1(c2ccc(Cl)cc2)CCC1 | > 4000 |
| Cn1c(-c2ccc(Cc3ccccc3)cc2)nnc1C1(c2ccc(Cl)cc2)CCC1 | > 4000 |
| COc1ccc(-c2nnc(C3(c4ccc(Cl)cc4)CCC3)n2C)cc1F | > 4000 |
| Cn1c(-c2ccc(OC(F)(F)F)cc2)nnc1C1(c2ccc(Cl)cc2)CCC1 | > 4000 |
| Cn1c(-c2ccc(-c3ccccc3)cc2)nnc1C1(c2ccc(Cl)cc2)CCC1 | > 4000 |
| Cn1c(-c2ccc(-c3nccs3)cc2)nnc1C1(c2ccc(Cl)cc2)CCC1 | > 4000 |
| Cn1c(-c2ccc(-n3ccnc3)cc2)nnc1C1(c2ccc(Cl)cc2)CCC1 | > 4000 |
| Cn1c(-c2ccccc2)nnc1C1(c2ccc(Cl)cc2)CCC1 | > 4000 |

Each molecule was assayed against 11-beta-hydroxysteroid dehydrogenase 1 (Homo sapiens, UniProt P28845) (assay: Inhibition of human 11beta HSD1 by SPA assay).
11-beta-hydroxysteroid dehydrogenase 1 (Homo sapiens, UniProt P28845), sequence (P28845 whole entry): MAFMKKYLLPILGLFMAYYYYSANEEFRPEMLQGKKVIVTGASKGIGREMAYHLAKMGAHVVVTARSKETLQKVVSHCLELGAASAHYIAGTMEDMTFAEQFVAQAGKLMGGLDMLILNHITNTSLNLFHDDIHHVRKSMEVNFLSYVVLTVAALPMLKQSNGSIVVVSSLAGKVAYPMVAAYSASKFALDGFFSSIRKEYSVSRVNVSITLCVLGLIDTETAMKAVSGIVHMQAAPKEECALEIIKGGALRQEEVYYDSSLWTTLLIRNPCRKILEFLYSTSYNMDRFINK

| SMILES | IC50 [nM] |
| --- | --- |
| Cn1c(-c2ccc(O)cc2)nnc1C1(c2ccc(Cl)cc2)CCC1 | 0.34 |
| Cc1ccccc1-c1nnc(C2(c3ccc(Cl)cc3)CCC2)n1C | 5 |
| Cn1c(-c2ccccc2)nnc1C12CC3CC(CC(C3)C1)C2 [FIG 1] | 37 |
| Cn1c(-c2ccccc2C(F)(F)F)nnc1C1(c2ccc(Cl)cc2)CCC1 | 2 |
| Cn1c(-c2ccccc2OC(F)(F)F)nnc1C1(c2ccc(Cl)cc2)CCC1 | 2.3 |
| Cn1c(-c2ccccc2Cl)nnc1C1(c2ccc(Cl)cc2)CCC1 | 0.28 |
| Cn1c(-c2cccc(Cl)c2)nnc1C1(c2ccc(Cl)cc2)CCC1 | 1 |
| Cn1c(-c2ccccc2O)nnc1C1(c2ccc(Cl)cc2)CCC1 | 1.8 |
| Cn1c(-c2ccc(-n3cccc3)cc2)nnc1C1(c2ccc(Cl)cc2)CCC1 | 3 |
| Cn1c(-c2cccc(-c3ccccc3)c2)nnc1C1(c2ccc(Cl)cc2)CCC1 | 4.3 |
| Cn1c(-c2ccc(OC3CC3)cc2)nnc1C1(c2ccc(Cl)cc2)CCC1 | 10 |
| Cn1c(-c2ccc(Cc3ccccc3)cc2)nnc1C1(c2ccc(Cl)cc2)CCC1 | 68 |
| COc1ccc(-c2nnc(C3(c4ccc(Cl)cc4)CCC3)n2C)cc1F | 3 |
| Cn1c(-c2ccc(OC(F)(F)F)cc2)nnc1C1(c2ccc(Cl)cc2)CCC1 | 13 |
| Cn1c(-c2ccc(-c3ccccc3)cc2)nnc1C1(c2ccc(Cl)cc2)CCC1 | 11 |
| Cn1c(-c2ccc(-c3nccs3)cc2)nnc1C1(c2ccc(Cl)cc2)CCC1 | 44 |
| Cn1c(-c2ccc(-n3ccnc3)cc2)nnc1C1(c2ccc(Cl)cc2)CCC1 | 3.5 |
| Cn1c(-c2ccccc2)nnc1C1(c2ccc(Cl)cc2)CCC1 | 1.7 |

These molecules were tested against T2, 11-beta-hydroxysteroid dehydrogenase type 2 (Homo sapiens, UniProt P80365) (assay: Inhibition of human 11beta HSD2).
T2 sequence (P80365 whole entry): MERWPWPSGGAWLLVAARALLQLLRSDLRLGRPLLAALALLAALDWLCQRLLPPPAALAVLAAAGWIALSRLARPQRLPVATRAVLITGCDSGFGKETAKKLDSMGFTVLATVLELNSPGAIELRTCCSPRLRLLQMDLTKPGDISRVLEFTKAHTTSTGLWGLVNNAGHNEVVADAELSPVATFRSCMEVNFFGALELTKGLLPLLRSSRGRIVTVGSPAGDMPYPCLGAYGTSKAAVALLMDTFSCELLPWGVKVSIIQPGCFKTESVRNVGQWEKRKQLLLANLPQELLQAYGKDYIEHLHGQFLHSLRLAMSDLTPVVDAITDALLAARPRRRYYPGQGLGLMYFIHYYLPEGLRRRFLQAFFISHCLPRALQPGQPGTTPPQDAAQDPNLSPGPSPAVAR

| SMILES | IC50 [nM] |
| --- | --- |
| Cn1c(-c2ccc(O)cc2)nnc1C1(c2ccc(Cl)cc2)CCC1 | > 4000 |
| Cc1ccccc1-c1nnc(C2(c3ccc(Cl)cc3)CCC2)n1C | > 4000 |
| Cn1c(-c2ccccc2)nnc1C12CC3CC(CC(C3)C1)C2 [FIG 1] | > 4000 |
| Cn1c(-c2ccccc2C(F)(F)F)nnc1C1(c2ccc(Cl)cc2)CCC1 | > 4000 |
| C1CCc2nnc(C34CC5CC(CC(C5)C3)C4)n2CC1 | > 3000 |
| Cn1c(-c2ccccc2OC(F)(F)F)nnc1C1(c2ccc(Cl)cc2)CCC1 | > 4000 |
| Cn1c(-c2ccccc2Cl)nnc1C1(c2ccc(Cl)cc2)CCC1 | > 4000 |
| Cn1c(-c2cccc(Cl)c2)nnc1C1(c2ccc(Cl)cc2)CCC1 | > 4000 |
| Cn1c(-c2ccccc2O)nnc1C1(c2ccc(Cl)cc2)CCC1 | > 4000 |
| Cn1c(-c2ccc(-n3cccc3)cc2)nnc1C1(c2ccc(Cl)cc2)CCC1 | > 4000 |
| Cn1c(-c2cccc(-c3ccccc3)c2)nnc1C1(c2ccc(Cl)cc2)CCC1 | > 4000 |
| Cn1c(-c2ccc(OC3CC3)cc2)nnc1C1(c2ccc(Cl)cc2)CCC1 | > 4000 |
| Cn1c(-c2ccc(Cc3ccccc3)cc2)nnc1C1(c2ccc(Cl)cc2)CCC1 | > 4000 |
| COc1ccc(-c2nnc(C3(c4ccc(Cl)cc4)CCC3)n2C)cc1F | > 4000 |
| Cn1c(-c2ccc(OC(F)(F)F)cc2)nnc1C1(c2ccc(Cl)cc2)CCC1 | > 4000 |
| Cn1c(-c2ccc(-c3ccccc3)cc2)nnc1C1(c2ccc(Cl)cc2)CCC1 | > 4000 |
| Cn1c(-c2ccc(-c3nccs3)cc2)nnc1C1(c2ccc(Cl)cc2)CCC1 | > 4000 |
| Cn1c(-c2ccc(-n3ccnc3)cc2)nnc1C1(c2ccc(Cl)cc2)CCC1 | > 4000 |
| Cn1c(-c2ccccc2)nnc1C1(c2ccc(Cl)cc2)CCC1 | > 4000 |

Reference: ChEMBL document CHEMBL1150311, “4-Methyl-5-phenyl triazoles as selective inhibitors of 11beta-hydroxysteroid dehydrogenase type I” (Bioorg Med Chem Lett, 2008)
